Measured values from PubChem BioAssay AID180 (DTP/NCI, 2004).
Where “and” joins values, the source holds several entries; their conditions need not be identical. Identical values can stand only once.

System: BDF1 mice, Adenocarcinoma 755 s.c., tumor weight T/C
Experiment: NCI In Vivo Anticancer Drug Screen. Data for tumor model Adenocarcinoma 755 (subcutaneous) in B6D2F1 (BDF1) mice
Details: endpoint: mean tumor weight, higher = larger tumour
How it was run: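 Readout: T/C, i.e. treated-group measurement over vehicle-control measurement. Endpoint is survival or tumor size in tumor-bearing mice given compound.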

[1] = dose: 30.0 mg/kg/injection, schedule: Q01DX011 (ip), vehicle: saline
[2] = dose: 120.0 mg/kg/injection, schedule: Q01DX011 (ip), vehicle: saline
[3] = dose: 25.0 mg/kg/injection, schedule: Q01DX011 (ip), vehicle: methylcellulose (MC)
[4] = dose: 12.5 mg/kg/injection, schedule: Q01DX011 (ip), vehicle: carboxymethylcellulose (CMC)
[5] = dose: 125.0 mg/kg/injection, schedule: Q01DX011 (ip), vehicle: methylcellulose (MC)
[6] = dose: 250.0 mg/kg/injection, schedule: Q01DX011 (ip), vehicle: methylcellulose (MC)
[7] = dose: 30.0 mg/kg/injection, schedule: Q01DX011 (ip), vehicle: carboxymethylcellulose (CMC)
[8] = dose: 75.0 mg/kg/injection, schedule: Q01DX011 (ip), vehicle: methylcellulose (MC)
[9] = dose: 120.0 mg/kg/injection, schedule: Q01DX011 (ip), vehicle: carboxymethylcellulose (CMC)
[10] = dose: 12.5 mg/kg/injection, schedule: Q01DX011 (ip), vehicle: methylcellulose (MC)

C=CCOP(=O)(N1CC1CC)N1CC1CC (stereo not given)
T/C (dose: 17.0 mg/kg/injection, schedule: Q01DX011 (ip), vehicle: saline): 69 % of control | T/C (dose: 33.0 mg/kg/injection, schedule: Q01DX011 (ip), vehicle: saline): 50 % of control | T/C (dose: 66.0 mg/kg/injection, schedule: Q01DX011 (ip), vehicle: saline): 18 % of control

Cc1ccc(S(=O)(=O)OCCC(=O)N2CCN(C(=O)CCOS(=O)(=O)c3ccc(C)cc3)CC2)cc1
T/C (dose: 22.0 mg/kg/injection, schedule: Q01DX011 (ip), vehicle: methylcellulose (MC)): 57 % of control | T/C (dose: 43.0 mg/kg/injection, schedule: Q01DX011 (ip), vehicle: methylcellulose (MC)): 47 % of control | T/C (dose: 87.0 mg/kg/injection, schedule: Q01DX011 (ip), vehicle: methylcellulose (MC)): 80 % of control | T/C (dose: 175.0 mg/kg/injection, schedule: Q01DX011 (ip), vehicle: methylcellulose (MC)): 60 % of control

CC1(C)O[C@@H]2C[C@H]3[C@@H]4CCC5=CC(=O)CC[C@]5(C)[C@@]4(F)[C@@H](O)C[C@]3(C)[C@]2(C(=O)CO)O1
T/C (dose: 0.3 mg/kg/injection, schedule: Q01DX011 (sc), vehicle: steriod suspending solution): 60 % of control | T/C (dose: 0.7 mg/kg/injection, schedule: Q01DX011 (sc), vehicle: steriod suspending solution): 42 % of control | T/C (dose: 0.75 mg/kg/injection, schedule: Q01DX011 (sc), vehicle: steriod suspending solution): 82 % of control | T/C (dose: 6.0 mg/kg/injection, schedule: Q01DX011 (sc), vehicle: steriod suspending solution): 36 % of control | T/C (dose: 6.25 mg/kg/injection, schedule: Q01DX011 (sc), vehicle: steriod suspending solution): 41 % of control | T/C (dose: 12.0 mg/kg/injection, schedule: Q01DX011 (sc), vehicle: steriod suspending solution): 16 % of control | T/C (dose: 12.5 mg/kg/injection, schedule: Q01DX011 (sc), vehicle: steriod suspending solution): 31 % of control | T/C (dose: 24.0 mg/kg/injection, schedule: Q01DX011 (sc), vehicle: steriod suspending solution): 8 % of control (2×) and 14 % of control | T/C (dose: 25.0 mg/kg/injection, schedule: Q01DX011 (sc), vehicle: steriod suspending solution): 20 % of control | T/C (dose: 48.0 mg/kg/injection, schedule: Q01DX011 (sc), vehicle: steriod suspending solution): 8 % of control

Cn1cnc2c(ncn2C2OC(CO)C(O)C2O)c1=N (stereo not given)
T/C [1]: 118 % of control | T/C [2]: 47 % of control | T/C (dose: 240.0 mg/kg/injection, schedule: Q01DX011 (ip), vehicle: saline): 74 % of control

Cn1c(=O)c2c(nc(Cl)n2CCl)n(C)c1=O
T/C [3]: 60 % of control

CC1CCC(n2cnc3c([N+](C)(C)C)ncnc32)O1 (stereo not given)
T/C (dose: 15.0 mg/kg/injection, schedule: Q01DX011 (ip), vehicle: saline): 58 % of control | T/C [1]: 35 % of control and 40 % of control | T/C (dose: 60.0 mg/kg/injection, schedule: Q01DX011 (ip), vehicle: saline): 5 % of control | T/C [2]: 1 % of control

c1nc(N2CC2)c2ncn(C3CCCCC3)c2n1
T/C [4]: 36 % of control | T/C (dose: 50.0 mg/kg/injection, schedule: Q01DX011 (ip), vehicle: carboxymethylcellulose (CMC)): 94 % of control

C=C1CN(CC)CCO1
T/C (dose: 50.0 mg/kg/injection, schedule: Q01DX011 (ip), vehicle: other): 73 % of control | T/C (dose: 100.0 mg/kg/injection, schedule: Q01DX011 (ip), vehicle: other): 72 % of control

Cc1cc(Nc2ccc(CCO)cc2)nc(N)n1
T/C (dose: 15.0 mg/kg/injection, schedule: Q01DX011 (ip), vehicle: methylcellulose (MC)): 64 % of control | T/C (dose: 31.0 mg/kg/injection, schedule: Q01DX011 (ip), vehicle: methylcellulose (MC)): 75 % of control | T/C (dose: 62.0 mg/kg/injection, schedule: Q01DX011 (ip), vehicle: methylcellulose (MC)): 77 % of control | T/C [5]: 85 % of control | T/C [6]: 73 % of control

Nc1nc(SCc2ccccc2)c2ncn(Cc3ccccc3)c2n1
T/C (dose: 62.5 mg/kg/injection, schedule: Q01DX011 (ip), vehicle: methylcellulose (MC)): 28 % of control | T/C [5]: 14 % of control | T/C [6]: 7 % of control

Cn1c(=O)c2[nH]c(NN)nc2n(C)c1=O
T/C [3]: 66 % of control

Cc1nnc2ncnc(N)c2n1
T/C [7]: 46 % of control

Nc1nc(SCC(=O)c2ccc(Cl)cc2)c2ncn(C3OC(CO)C(O)C3O)c2n1 (stereo not given)
T/C (dose: 37.5 mg/kg/injection, schedule: Q01DX011 (ip), vehicle: methylcellulose (MC)): 62 % of control | T/C [8]: 44 % of control | T/C (dose: 150.0 mg/kg/injection, schedule: Q01DX011 (ip), vehicle: methylcellulose (MC)): 31 % of control | T/C (dose: 300.0 mg/kg/injection, schedule: Q01DX011 (ip), vehicle: methylcellulose (MC)): 24 % of control

Nc1nc(N)c2cnnn2n1
T/C (dose: 25.0 mg/kg/injection, schedule: Q01DX011 (ip), vehicle: saline): 83 % of control | T/C (dose: 75.0 mg/kg/injection, schedule: Q01DX011 (ip), vehicle: saline): 116 % of control

O=C(CCBr)N1CN(C(=O)CCBr)CN(C(=O)CCBr)C1
T/C (dose: 57.0 mg/kg/injection, schedule: Q01DX011 (ip), vehicle: methylcellulose (MC)): 117 % of control | T/C (dose: 113.0 mg/kg/injection, schedule: Q01DX011 (ip), vehicle: methylcellulose (MC)): 97 % of control | T/C (dose: 225.0 mg/kg/injection, schedule: Q01DX011 (ip), vehicle: methylcellulose (MC)): 80 % of control

CNc1nc(N)nc(Nc2ccc(I)cc2)c1N=O
T/C [4]: 52 % of control | T/C (dose: 25.0 mg/kg/injection, schedule: Q01DX011 (ip), vehicle: carboxymethylcellulose (CMC)): 39 % of control and 52 % of control | T/C (dose: 50.0 mg/kg/injection, schedule: Q01DX011 (ip), vehicle: methylcellulose (MC)): 31 % of control | T/C (dose: 100.0 mg/kg/injection, schedule: Q01DX011 (ip), vehicle: carboxymethylcellulose (CMC)): 20 % of control and 36 % of control and 38 % of control | T/C (dose: 100.0 mg/kg/injection, schedule: Q01DX011 (ip), vehicle: methylcellulose (MC)): 46 % of control | T/C (dose: 200.0 mg/kg/injection, schedule: Q01DX011 (ip), vehicle: carboxymethylcellulose (CMC)): 28 % of control and 30 % of control | T/C (dose: 200.0 mg/kg/injection, schedule: Q01DX011 (ip), vehicle: methylcellulose (MC)): 25 % of control | T/C (dose: 400.0 mg/kg/injection, schedule: Q01DX011 (ip), vehicle: methylcellulose (MC)): 12 % of control

CCOC1=C(N2CC2)C(=O)C(OCC)=C(N2CC2)C1=O
T/C (dose: 0.08 mg/kg/injection, schedule: Q01DX011 (ip), vehicle: carboxymethylcellulose (CMC)): 36 % of control | T/C (dose: 0.12 mg/kg/injection, schedule: Q01DX011 (ip), vehicle: carboxymethylcellulose (CMC)): 94 % of control | T/C (dose: 0.16 mg/kg/injection, schedule: Q01DX011 (ip), vehicle: carboxymethylcellulose (CMC)): 46 % of control | T/C (dose: 0.25 mg/kg/injection, schedule: Q01DX011 (ip), vehicle: carboxymethylcellulose (CMC)): 55 % of control | T/C (dose: 0.32 mg/kg/injection, schedule: Q01DX011 (ip), vehicle: carboxymethylcellulose (CMC)): 48 % of control | T/C (dose: 0.5 mg/kg/injection, schedule: Q01DX011 (ip), vehicle: carboxymethylcellulose (CMC)): 71 % of control | T/C (dose: 0.63 mg/kg/injection, schedule: Q01DX011 (ip), vehicle: carboxymethylcellulose (CMC)): 35 % of control | T/C (dose: 1.0 mg/kg/injection, schedule: Q01DX011 (ip), vehicle: carboxymethylcellulose (CMC)): 44 % of control | T/C (dose: 2.5 mg/kg/injection, schedule: Q01DX011 (ip), vehicle: methylcellulose (MC)): 21 % of control | T/C (dose: 10.0 micrograms/kg/injection, schedule: Q01DX011 (ip), vehicle: carboxymethylcellulose (CMC)): 111 % of control | T/C (dose: 40.0 micrograms/kg/injection, schedule: Q01DX011 (ip), vehicle: carboxymethylcellulose (CMC)): 98 % of control | T/C (dose: 80.0 micrograms/kg/injection, schedule: Q01DX011 (ip), vehicle: carboxymethylcellulose (CMC)): 115 % of control

CC(=O)OCC1OC(n2cnc3c(Cl)nc(N)nc32)C(OC(C)=O)C1OC(C)=O (stereo not given)
T/C [7]: 114 % of control | T/C (dose: 60.0 mg/kg/injection, schedule: Q01DX011 (ip), vehicle: carboxymethylcellulose (CMC)): 118 % of control | T/C [9]: 78 % of control | T/C (dose: 240.0 mg/kg/injection, schedule: Q01DX011 (ip), vehicle: carboxymethylcellulose (CMC)): 72 % of control

O=C(CCBr)NCCCNC(=O)CCBr
T/C [3]: 54 % of control | T/C [8]: 37 % of control

CC(=O)Nc1nc(SCc2ccccc2)c2[nH]cnc2n1
T/C [10]: 8 % of control

CCCSc1nc(N)nc2c1ncn2C1OC(CO)C(O)C1O (stereo not given)
T/C (dose: 3.1 mg/kg/injection, schedule: Q01DX011 (ip), vehicle: methylcellulose (MC)): 33 % of control | T/C (dose: 6.25 mg/kg/injection, schedule: Q01DX011 (ip), vehicle: methylcellulose (MC)): 4 % of control | T/C [10]: 2 % of control

Nc1ncnc2c1nc(Br)n2C1OC(CO)C(O)C1O (stereo not given)
T/C [7]: 117 % of control | T/C [9]: 109 % of control
